In ChEMBL document CHEMBL1201862, “PubChem BioAssay data set” (2004):
Calls of active or inactive are those of the source.

Tests used:
[1] = target: Mitogen-activated protein kinase 10 (Homo sapiens, UniProt P53779); assay: Dose response biochemical screening assay for inhibitors of c-Jun N-Terminal Kinase 3 (JNK3). [Related pubchem assays: 746 ]
[2] = system: INS1; assay: INS-1E survival protection against cytokine death – cell-based, luminescence, retest, dose response (AID 449756); type: functional; conditions: Rattus norvegicus;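 further: cell death triggered by IL-1 beta plus TNF-alpha plus IFN-gamma mixture; protective hits raise ATP signal compared with cytokine alone wells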
[3] = Trypanosoma cruzi growth suppression in host cells – NIH3T3 host cells, beta-gal luminescence, confirmation (AID 2044); type: functional, cell-based;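 further: intracellular parasites grown in NIH/3T3 mouse fibroblasts as host cells; luminescent beta-galactosidase reporter signal from transgenic T. cruzi replicating inside host cells; inhibitors lower the luminescence signal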
[4] = NIH3T3 cell viability loss – ATP luminescence, mouse fibroblasts, counter-screen, dose response (AID 2010); type: functional, cell-based;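 further: cells exposed to compound for about 90 hours before reading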
[5] = NIH-3T3 fibroblast cytotoxicity, dose response, cytotoxicity control, cell-based, fluorescence, Alamar Blue, secondary assay (AID 2327); type: functional;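 further: NIH-3T3 mouse fibroblasts cultured with fluconazole at 8 µg/mL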
[6] = fluconazole-exposed Candida albicans growth modulators – fluorescence, retest, confirmation (AID 2467); type: functional, cell-based
[7] = cells
[8] = target: T1, Rac GTPase-activating protein 1 (Homo sapiens, UniProt Q9H0H5); assay: blockers of MgcRacGAP-driven Rac1 GTP hydrolysis – biochemical, ADP Hunter fluorescence, primary and confirmatory, confirmation (AID 624330); type: functional
T1 sequence (Q9H0H5 whole entry): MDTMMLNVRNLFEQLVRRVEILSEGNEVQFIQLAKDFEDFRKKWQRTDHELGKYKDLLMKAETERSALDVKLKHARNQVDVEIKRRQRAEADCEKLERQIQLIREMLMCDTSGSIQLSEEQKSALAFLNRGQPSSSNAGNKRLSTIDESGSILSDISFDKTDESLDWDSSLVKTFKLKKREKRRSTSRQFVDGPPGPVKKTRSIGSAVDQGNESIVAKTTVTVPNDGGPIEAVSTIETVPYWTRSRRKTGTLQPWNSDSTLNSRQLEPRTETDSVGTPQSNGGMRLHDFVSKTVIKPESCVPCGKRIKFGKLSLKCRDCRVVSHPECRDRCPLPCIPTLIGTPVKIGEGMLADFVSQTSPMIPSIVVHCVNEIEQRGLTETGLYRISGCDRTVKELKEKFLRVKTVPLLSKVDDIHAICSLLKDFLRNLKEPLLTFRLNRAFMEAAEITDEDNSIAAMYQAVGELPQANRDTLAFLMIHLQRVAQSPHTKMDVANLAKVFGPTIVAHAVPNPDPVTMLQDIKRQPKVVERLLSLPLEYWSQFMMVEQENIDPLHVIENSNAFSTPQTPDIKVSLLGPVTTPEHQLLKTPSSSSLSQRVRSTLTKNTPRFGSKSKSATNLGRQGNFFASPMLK

[9] = target: T2, Mannose-6-phosphate isomerase (Homo sapiens, UniProt P34949); assay: MPI inhibition at elevated mannose 6-phosphate – biochemical, fluorescence intensity, high mannose 6-phosphate, primary screen (AID 1220)
T2 sequence (P34949 whole entry): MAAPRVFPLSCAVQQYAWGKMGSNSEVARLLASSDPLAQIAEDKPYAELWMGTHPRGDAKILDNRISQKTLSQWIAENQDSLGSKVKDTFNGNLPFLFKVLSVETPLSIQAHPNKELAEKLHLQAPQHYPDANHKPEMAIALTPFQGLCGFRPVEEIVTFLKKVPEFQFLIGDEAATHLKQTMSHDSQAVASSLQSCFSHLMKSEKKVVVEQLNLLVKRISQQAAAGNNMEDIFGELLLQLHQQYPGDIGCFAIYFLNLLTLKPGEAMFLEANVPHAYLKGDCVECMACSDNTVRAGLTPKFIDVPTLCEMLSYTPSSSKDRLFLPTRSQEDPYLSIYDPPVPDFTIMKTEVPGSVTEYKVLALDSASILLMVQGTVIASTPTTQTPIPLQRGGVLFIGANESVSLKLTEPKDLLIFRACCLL

[10] = OVCAR8 cell viability loss – plate reader, dry powder samples, PAX8 project, dose response (AID 743197); type: functional, cell-based; conditions: OVCAR-8
[11] = target: Paired box protein Pax-8 (Homo sapiens, UniProt Q06710); assay: PAX8 transcriptional activity inhibition in RMG-I – RMG-I cells, luciferase, cherry-pick, dose response (AID 687027); type: functional, cell-based;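 further: luciferase reporter driven by Pax8 target thyroperoxidase promoter measured by SteadyGlo luminescence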
[12] = viability of uninfected HEp-2 cells – cell-based, HTS, cytotoxicity control for RSV inhibitor project, dose response (AID 2410); type: functional; conditions: human respiratory syncytial virus
[13] = cells; remark: listed apart in the source
[14] = viability loss in THP-1 monocytes – THP-1 cells, cytotoxicity control for Vif-APOBEC3G degradation inhibitor project, dose response (AID 1117359); type: functional; conditions: THP-1
[15] = target: T3, Lytic switch protein BZLF1 (Epstein-Barr virus (strain B95-8) (HHV-4) (Human herpesvirus 4), UniProt P03206); assay: inhibition of BZLF1 ZTA DNA binding – biochemical, fluorescence polarization, Epstein-Barr virus, 1536-well, counter-screen for EBNA-1 inhibitor project, dose response (AID 2377); design: species or system human gammaherpesvirus 4;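 further: fluorescence polarization of Cy5-labelled ZRE DNA probe bound by purified Zta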
T3 sequence (P03206 whole entry): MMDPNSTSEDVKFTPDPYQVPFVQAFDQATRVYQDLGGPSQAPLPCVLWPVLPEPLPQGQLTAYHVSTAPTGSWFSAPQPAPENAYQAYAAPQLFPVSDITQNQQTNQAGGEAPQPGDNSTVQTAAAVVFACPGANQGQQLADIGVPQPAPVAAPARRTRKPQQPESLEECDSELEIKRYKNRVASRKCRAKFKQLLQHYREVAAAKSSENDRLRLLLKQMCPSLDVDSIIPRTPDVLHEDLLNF

[16] = target: T4, Epstein-Barr nuclear antigen 1 (Epstein-Barr virus (strain B95-8) (HHV-4) (Human herpesvirus 4), UniProt P03211); assay: inhibition of EBV nuclear antigen 1 DNA binding – biochemical, fluorescence polarization, 1536-well, dose response (AID 2381); design: species or system human gammaherpesvirus 4;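 further: fluorescence polarization of a Cy5 DNA probe bound by EBNA-1 protein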
T4 sequence (P03211 whole entry): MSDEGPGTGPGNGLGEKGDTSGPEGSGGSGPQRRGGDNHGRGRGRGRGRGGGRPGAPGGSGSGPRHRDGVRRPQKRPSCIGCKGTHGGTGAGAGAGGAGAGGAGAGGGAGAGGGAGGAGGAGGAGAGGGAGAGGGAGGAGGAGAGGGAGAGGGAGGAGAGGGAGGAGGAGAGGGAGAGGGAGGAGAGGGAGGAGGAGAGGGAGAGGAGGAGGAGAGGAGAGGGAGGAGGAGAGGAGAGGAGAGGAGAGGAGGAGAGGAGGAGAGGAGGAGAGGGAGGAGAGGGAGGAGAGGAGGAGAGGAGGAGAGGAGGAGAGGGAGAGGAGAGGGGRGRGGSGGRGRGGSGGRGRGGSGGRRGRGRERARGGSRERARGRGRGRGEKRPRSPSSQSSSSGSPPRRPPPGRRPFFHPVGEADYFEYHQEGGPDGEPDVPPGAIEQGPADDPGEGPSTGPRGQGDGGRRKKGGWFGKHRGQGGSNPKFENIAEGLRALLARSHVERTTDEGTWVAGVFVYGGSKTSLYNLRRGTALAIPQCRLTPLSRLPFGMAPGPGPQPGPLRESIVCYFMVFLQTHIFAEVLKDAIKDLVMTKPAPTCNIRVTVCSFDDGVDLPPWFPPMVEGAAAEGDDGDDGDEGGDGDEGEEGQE

Mitogen-activated protein kinase 10, sequence (P53779 whole entry): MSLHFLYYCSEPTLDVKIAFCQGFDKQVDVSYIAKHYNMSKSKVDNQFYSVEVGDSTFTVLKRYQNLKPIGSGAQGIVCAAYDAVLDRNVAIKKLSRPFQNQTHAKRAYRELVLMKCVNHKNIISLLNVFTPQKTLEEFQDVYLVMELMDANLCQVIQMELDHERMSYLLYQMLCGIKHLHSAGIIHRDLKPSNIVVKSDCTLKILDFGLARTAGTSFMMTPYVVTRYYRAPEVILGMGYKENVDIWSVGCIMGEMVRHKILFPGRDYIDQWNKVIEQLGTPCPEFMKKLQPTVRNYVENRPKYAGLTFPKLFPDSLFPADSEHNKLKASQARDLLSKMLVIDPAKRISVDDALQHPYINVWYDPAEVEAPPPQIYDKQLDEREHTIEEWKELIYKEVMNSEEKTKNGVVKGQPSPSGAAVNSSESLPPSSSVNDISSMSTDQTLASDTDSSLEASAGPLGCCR
Paired box protein Pax-8, sequence (Q06710 whole entry): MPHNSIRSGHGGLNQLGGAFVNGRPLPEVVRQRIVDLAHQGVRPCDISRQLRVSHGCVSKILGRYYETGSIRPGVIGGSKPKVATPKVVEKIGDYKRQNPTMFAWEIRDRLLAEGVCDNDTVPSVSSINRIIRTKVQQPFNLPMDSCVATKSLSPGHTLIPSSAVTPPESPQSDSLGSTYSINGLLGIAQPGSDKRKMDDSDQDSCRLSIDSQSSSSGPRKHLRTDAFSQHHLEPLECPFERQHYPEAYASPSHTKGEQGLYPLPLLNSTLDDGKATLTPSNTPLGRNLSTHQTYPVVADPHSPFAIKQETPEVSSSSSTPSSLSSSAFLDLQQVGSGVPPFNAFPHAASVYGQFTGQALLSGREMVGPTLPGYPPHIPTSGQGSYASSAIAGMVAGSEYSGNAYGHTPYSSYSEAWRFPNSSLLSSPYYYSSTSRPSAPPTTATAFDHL

## O=C1CCCc2nn(-c3ccccc3)c(-c3ccncc3)c21
[1]
  IC50: 42.3 µM (not active)

## CCN1/C(=C/c2cccc[n+]2C)Sc2ccc(OC)cc21
[2]
  AC50: 1.65 µM (active)
[3]
  EC50: < 0.1 µM (active)
[4]
  EC50: > 60 µM (not active)
[5]
  EC50: > 150 µM (inactive)
[6]
  EC50: 0.961 µM (active)
[7]
  EC50: 0.084 µM (active)

## CCOC(=O)c1sc(/N=C/c2c(O)ccc3ccccc23)cc1C
[8]
  IC50: 139 µM (active)
[9]
  IC50: > 50 µM (not active)

## O=C(C[C@@H]1C[C@@H]2c3cc(NS(=O)(=O)c4ccc(F)cc4)ccc3O[C@@H]2[C@@H](CO)O1)NCc1ccc(-c2ccccc2)cc1
[10]
  AC50: > 70 µM (inactive)
[11]
  AC50: 4.41 µM (active)

## COC(=O)c1sccc1NC(=O)CN1CCN(c2ccc(F)cc2)CC1
[12]
  CC50: 22.2 µM (active)
[1]
  IC50: 15.6 µM (not active)

## C/C(N)=C(/C#N)C(=O)CN1C(=O)NC(Cc2c[nH]c3ccccc23)C1=O (stereo unspecified)
[13]
  IC50: 1.91 µM (active)

## C=CCN1C(=O)c2ccc(C(=O)N3CCN(c4ccccc4OC)CC3)cc2C1=O
[14]
  CC50: > 40 µM (active)

## COc1ccc(-c2cn3c(C)c(C(=O)NCc4ccc5c(c4)OCO5)sc3n2)cc1
[15]
  IC50: > 111 µM (not active)
[16]
  IC50: 4.84 µM (active)

## COc1cc(-c2nc3n(n2)C(c2cccc(OC)c2OC)C2=C(O)CCCC2=N3)cc(OC)c1OC (stereo unspecified)
[15]
  IC50: > 111 µM (not active)
[16]
  IC50: 12.9 µM (not active)

## Cc1ccc(NC(=O)CSc2nnc(NC(=O)c3ccc(S(=O)(=O)N4CCOCC4)cc3)s2)cc1
[15]
  IC50: > 111 µM (not active)
[16]
  IC50: 15.7 µM (not active)
